Consider five compounds from ChEMBL document CHEMBL1629580, “Sec- and Tat-dependent translocation of beta-lactamases across the Escherichia coli inner membrane” (2009).

≈ marks a conversion by molar mass, not a printed value.

In experiment [1] the test system is Escherichia coli. Kind of experiment: Antimicrobial activity against Escherichia coli CU164A harboring beta-lactamase AmpC by liquid microdilution method. Background: In broth dilution the organism is exposed to a series of concentrations in liquid medium.
For experiment [2], the system named is Escherichia coli. Kind of experiment: Antimicrobial activity against mreB-deficient Escherichia coli YLS-3 harboring beta-lactamase L2 by liquid microdilution method. Type of experiment: functional.
Experiment [3] concerns Escherichia coli. Kind of experiment: Antimicrobial activity against Escherichia coli MC4100A expressing beta-lactamase TEM-1 by liquid microdilution method. It counts as functional.
In experiment [4] the test system is Escherichia coli. Kind of experiment: Antimicrobial activity against translocase tatC-deficient Escherichia coli B1LK0A harboring beta-lactamase AmpC by liquid microdilution method.
Experiment [5] relates to Escherichia coli. The experiment can be described thus: Antimicrobial activity against Escherichia coli CU164A expressing beta-lactamase TEM-1 by liquid microdilution method. Type of experiment: functional.
Experiment [6] concerns Escherichia coli. The experiment can be described thus: Antimicrobial activity against Escherichia coli MC4100A harboring beta-lactamase AmpC by liquid microdilution method. It counts as functional.
Experiment [7] deals with Escherichia coli. The experiment can be described thus: Antimicrobial activity against Escherichia coli CU164A harboring beta-lactamase L1 by liquid microdilution method. Type of experiment: functional.
In experiment [8] the test system is Escherichia coli. Kind of experiment: Antimicrobial activity against Escherichia coli CU164A harboring empty plasmid by liquid microdilution method. Type of experiment: functional.
Experiment [9] deals with Escherichia coli. The experiment can be described thus: Antimicrobial activity against mreB-deficient Escherichia coli YLS-3 harboring beta-lactamase L1 by liquid microdilution method.
Experiment [10] relates to Escherichia coli. Kind of experiment: Antimicrobial activity against translocase tatC-deficient Escherichia coli B1LK0A expressing beta-lactamase TEM-1 by liquid microdilution method. It counts as functional.
The subject of experiment [11] is Escherichia coli. Kind of experiment: Antimicrobial activity against Escherichia coli MC4100A harboring beta-lactamase L1 by liquid microdilution method. Type of experiment: functional.
For experiment [12], the system named is Escherichia coli. The experiment can be described thus: Antimicrobial activity against mreB-deficient Escherichia coli YLS-3 harboring beta-lactamase AmpC by liquid microdilution method.
Experiment [13] deals with Escherichia coli. The experiment can be described thus: Antimicrobial activity against mreB-deficient Escherichia coli YLS-3 harboring empty plasmid by liquid microdilution method. Type of experiment: functional.
Experiment [14] deals with Escherichia coli. The experiment can be described thus: Antimicrobial activity against translocase tatC-deficient Escherichia coli B1LK0A harboring empty plasmid by liquid microdilution method. It counts as functional.
The subject of experiment [15] is Escherichia coli. The experiment can be described thus: Antimicrobial activity against Escherichia coli CU164A harboring beta-lactamase CTX-M-14 by liquid microdilution method. It counts as functional.
In experiment [16] the test system is Escherichia coli. The experiment can be described thus: Antimicrobial activity against mreB-deficient Escherichia coli YLS-3 expressing beta-lactamase TEM-1 by liquid microdilution method. It counts as functional.
In experiment [17] the test system is Escherichia coli. The experiment can be described thus: Antimicrobial activity against Escherichia coli MC4100A harboring beta-lactamase CTX-M-14 by liquid microdilution method. Type of experiment: functional.
Experiment [18] has as its system Escherichia coli. Kind of experiment: Antimicrobial activity against translocase tatC-deficient Escherichia coli B1LK0A harboring beta-lactamase L2 by liquid microdilution method. It counts as functional.
Experiment [19] concerns Escherichia coli. The experiment can be described thus: Antimicrobial activity against translocase tatC-deficient Escherichia coli B1LK0A harboring beta-lactamase L1 by liquid microdilution method. Type of experiment: functional.
Experiment [20] concerns Escherichia coli. The experiment can be described thus: Antimicrobial activity against Escherichia coli CU164A harboring beta-lactamase L2 by liquid microdilution method.
Experiment [21] has as its system Escherichia coli. The experiment can be described thus: Antimicrobial activity against Escherichia coli MC4100A harboring empty plasmid by liquid microdilution method. It counts as functional.
The test system of experiment [22] is Escherichia coli. The experiment can be described thus: Antimicrobial activity against mreB-deficient Escherichia coli YLS-3 harboring beta-lactamase CTX-M-14 by liquid microdilution method. It counts as functional.
In experiment [23] the test system is Escherichia coli. The experiment can be described thus: Antimicrobial activity against Escherichia coli MC4100A harboring beta-lactamase L2 by liquid microdilution method.
Experiment [24] concerns Escherichia coli. The experiment can be described thus: Antimicrobial activity against translocase tatC-deficient Escherichia coli B1LK0A harboring beta-lactamase CTX-M-14 by liquid microdilution method. Type of experiment: functional.

Consider `CCN1CCN(C(=O)N[C@@H](C(=O)N[C@@H]2C(=O)N3[C@@H]2SC(C)(C)[C@@H]3C(=O)O)c2ccccc2)C(=O)C1=O` [PIPERACILLIN], for which the minimum inhibitory concentration (MIC) – broadly, the lowest concentration that inhibits growth of the organism – worked out at 32 µg/mL (≈ 61.8 µM) in [1]; 32 µg/mL (≈ 61.8 µM) in experiment [2]; 512 µg/mL (≈ 989 µM) in [3]; 32 µg/mL (≈ 61.8 µM) in [4]; 256 µg/mL (≈ 495 µM) in experiment [5]; 32 µg/mL (≈ 61.8 µM) in experiment [6]. Moreover, the MIC in [7] is 32 µg/mL (≈ 61.8 µM); in experiment [8] it was 2 µg/mL (≈ 3.86 µM); in experiment [9] it was 32 µg/mL (≈ 61.8 µM); in experiment [10], 128 µg/mL (≈ 247 µM); in experiment [11], 64 µg/mL (≈ 124 µM); in experiment [12], 16 µg/mL (≈ 30.9 µM). The MIC in experiment [13] is not above 2 µg/mL; in experiment [14], not above 2 µg/mL; in [15] it was 512 µg/mL (≈ 989 µM); in experiment [16], 32 µg/mL (≈ 61.8 µM); in [17] it was 512 µg/mL (≈ 989 µM); in [18] it was not above 2 µg/mL. For the same compound, the MIC was determined as 32 µg/mL (≈ 61.8 µM) in experiment [19]; 128 µg/mL (≈ 247 µM) in experiment [20]; 2 µg/mL (≈ 3.86 µM) in [21]; 128 µg/mL (≈ 247 µM) in experiment [22]; 128 µg/mL (≈ 247 µM) in [23]; 512 µg/mL (≈ 989 µM) in [24].

Turning to `CC1(C)S[C@@H]2[C@H](NC(=O)[C@H](N)c3ccc(O)cc3)C(=O)N2[C@H]1C(=O)O` [AMOXICILLIN], the MIC stood at 512 µg/mL (≈ 1400 µM) in experiment [1]; 256 µg/mL (≈ 701 µM) in experiment [2]; 1020 µg/mL (≈ 2800 µM) in experiment [3]; 512 µg/mL (≈ 1400 µM) in experiment [4]; 1020 µg/mL (≈ 2800 µM) in experiment [5]; 512 µg/mL (≈ 1400 µM) in [6]. For the same compound, the MIC is 512 µg/mL (≈ 1400 µM) in [7]; 4 µg/mL (≈ 10.9 µM) in [8]; 512 µg/mL (≈ 1400 µM) in experiment [9]; 512 µg/mL (≈ 1400 µM) in experiment [10]; 1020 µg/mL (≈ 2800 µM) in experiment [11]; 128 µg/mL (≈ 350 µM) in experiment [12]. For the same compound, the MIC in experiment [13] was 4 µg/mL (≈ 10.9 µM); in experiment [14] it was 4 µg/mL (≈ 10.9 µM); in [15], 2050 µg/mL (≈ 5600 µM); in experiment [16], 256 µg/mL (≈ 701 µM); in experiment [17], 2050 µg/mL (≈ 5600 µM); in experiment [18], 4 µg/mL (≈ 10.9 µM). Besides, the MIC in experiment [19] stood at 512 µg/mL (≈ 1400 µM); in experiment [20], 512 µg/mL (≈ 1400 µM); in [21] it was 4 µg/mL (≈ 10.9 µM); in [22] it was 1020 µg/mL (≈ 2800 µM); in [23] it was 64 µg/mL (≈ 175 µM); in experiment [24], 2050 µg/mL (≈ 5600 µM).

For `CC(C)(O/N=C(\C(=O)N[C@@H]1C(=O)N2C(C(=O)[O-])=C(C[n+]3ccccc3)CS[C@H]12)c1csc(N)n1)C(=O)O` [CEFTAZIDIME], the MIC in experiment [1] is 0.25 µg/mL (≈ 0.457 µM); in experiment [2] it was 0.06 µg/mL (≈ 0.11 µM); in experiment [3], not above 0.06 µg/mL; in [4], 0.25 µg/mL (≈ 0.457 µM); in experiment [5] it was not above 0.06 µg/mL; in experiment [6], 0.25 µg/mL (≈ 0.457 µM). Also, the minimum inhibitory concentration (MIC) was 8 µg/mL (≈ 14.6 µM) in [7]; not above 0.06 µg/mL in experiment [8]; 0.06 µg/mL (≈ 0.11 µM) in experiment [9]; not above 0.06 µg/mL in experiment [10]; 8 µg/mL (≈ 14.6 µM) in [11]; 0.06 µg/mL (≈ 0.11 µM) in [12]. Besides, the MIC in experiment [13] was not above 0.06 µg/mL; in experiment [14] it was not above 0.06 µg/mL; in experiment [15], 1 µg/mL (≈ 1.83 µM); in [16] it was not above 0.06 µg/mL; in experiment [17], 1 µg/mL (≈ 1.83 µM); in [18], not above 0.06 µg/mL. For the same compound, the MIC in [19] is 8 µg/mL (≈ 14.6 µM); in [20], 4 µg/mL (≈ 7.32 µM); in [21], not above 0.06 µg/mL; in experiment [22] it was 0.5 µg/mL (≈ 0.915 µM); in [23] it was 4 µg/mL (≈ 7.32 µM); in [24], 1 µg/mL (≈ 1.83 µM).

In the case of `CO/N=C(\C(=O)N[C@@H]1C(=O)N2C(C(=O)O)=C(COC(C)=O)CS[C@H]12)c1csc(N)n1` [CEFOTAXIME], the MIC in [1] was 0.5 µg/mL (≈ 1.1 µM); in experiment [2], 0.06 µg/mL (≈ 0.132 µM); in experiment [3], not above 0.06 µg/mL; in [4], 0.5 µg/mL (≈ 1.1 µM); in experiment [5], not above 0.06 µg/mL; in experiment [6], 0.5 µg/mL (≈ 1.1 µM). Also, the minimal inhibitory concentration (MIC) in [7] was 1 µg/mL (≈ 2.2 µM); in [9], 0.06 µg/mL (≈ 0.132 µM); in [10], not above 0.06 µg/mL; in [11], 1 µg/mL (≈ 2.2 µM); in experiment [12], 0.12 µg/mL (≈ 0.263 µM); in [15], 16 µg/mL (≈ 35.1 µM). Moreover, the MIC in [16] is not above 0.06 µg/mL; in experiment [17], 16 µg/mL (≈ 35.1 µM); in experiment [19], 1 µg/mL (≈ 2.2 µM); in experiment [20] it was 2 µg/mL (≈ 4.39 µM); in experiment [22], 4 µg/mL (≈ 8.78 µM); in experiment [23] it was 2 µg/mL (≈ 4.39 µM). Further, the MIC in experiment [24] was found to be 16 µg/mL (≈ 35.1 µM).

As for `CC(=O)OCC1=C(C(=O)O)N2C(=O)[C@@H](NC(=O)Cc3cccs3)[C@H]2SC1` [CEPHALOTHIN], the MIC in [1] was determined as 512 µg/mL (≈ 1290 µM); in experiment [2], 64 µg/mL (≈ 161 µM); in experiment [3], 32 µg/mL (≈ 80.7 µM); in [4], 256 µg/mL (≈ 646 µM); in experiment [5] it was 32 µg/mL (≈ 80.7 µM); in experiment [6] it was 1020 µg/mL (≈ 2580 µM). For the same compound, the MIC in experiment [7] was 128 µg/mL (≈ 323 µM); in [8], 4 µg/mL (≈ 10.1 µM); in experiment [9], 32 µg/mL (≈ 80.7 µM); in experiment [10] it was 16 µg/mL (≈ 40.4 µM); in experiment [11], 128 µg/mL (≈ 323 µM); in experiment [12] it was 256 µg/mL (≈ 646 µM). The MIC was not above 2 µg/mL in [13]; not above 2 µg/mL in [14]; 1020 µg/mL (≈ 2580 µM) in experiment [15]; 8 µg/mL (≈ 20.2 µM) in experiment [16]; 1020 µg/mL (≈ 2580 µM) in [17]; not above 2 µg/mL in [18]. Further, the MIC in experiment [19] was 128 µg/mL (≈ 323 µM); in experiment [20] it was 256 µg/mL (≈ 646 µM); in [21], 4 µg/mL (≈ 10.1 µM); in experiment [22] it was 128 µg/mL (≈ 323 µM); in experiment [23] it was 256 µg/mL (≈ 646 µM); in experiment [24] it was 512 µg/mL (≈ 1290 µM).
